Source: patent US20210308171A1, “METHODS FOR COMBINATORIAL SCREENING AND USE OF THERAPEUTIC TARGETS THEREOF” (THE BROAD INSTITUTE, INC., priority 2018, published 2021)

Key:
293T cells = experiment: SaCas9 tiling library 6-thioguanine resistance screen; type: cell-based
Description: FIG. 10—Development of SaCas9 on-target rules. (a) Representation of all SaCas9 sgRNAs tested according to group and gene. sgRNAs are grouped based on whether the target gene is assayed by 6-thioguanine resistance, cell viability, or vemurafenib resistance. Control sgRNAs are also indicated. (b) Log 2 fold change of sgRNAs relative to their starting abundance in the plasmid DNA library in cell viability and resistance experiments. That knockout of NUDTS confers 6-thioguanine resistance in 293T cells but not A375 cell is expected based on previous results^16. P-values: Kruskal-Wallis test with Dunn's multiple comparisons test for each gene relative to the set of non-targeting controls. Significance labels: ns, not significant; *P<0.05; **P<0.01; ***P<0.001; ****P<0.0001.
Applicants designed a second tiling library with all sgRNAs with an NNGRR PAM that targeted 9 genes with known phenotypes in viability and drug resistance assays, a total of 5,327 sgRNAs, including controls (FIG. 10a). Applicants performed viability screens in three cell lines (A375, 293T, MOLM13), and screened relevant cell lines for 6-thioguanine (A375, 293T) and vemurafenib resistance (A375).

[1] = system: Meljuso, OVCAR8, and A549 cells; experiment: Cell Titer Glo viability of cells transduced with single SaCas9 sgRNAs (MCL1, BCL2L1, BCL2L2 or controls) and treated with small molecule inhibitors; type: cell-based; conditions: 3 days; for synergy of small molecule with sgRNAs targeting MCL1 (cell viability): both sgRNAs targeting MCL1, dosed from 1 nM to 1 μM
Description: (b) Validation of genetic interactions with individual gene knockout combined with small molecules. Seven days after transduction with lentivirus expressing individual sgRNAs, cells were incubated with small molecules for three days before assaying viability by Cell Titer Glo. Points represent the average and whiskers represent the maximum and minimum of two replicate wells. […] Cells were incubated with small molecules for three days before assaying viability by Cell Titer Glo (top).
(a) As in FIG. 5b, cells were infected with individual sgRNAs and 7 days post-infection treated with small molecules over a range of doses. Cell viability was determined by Cell Titer Glo after 3 days.
Meljuso, OVCAR8, and A549 cells were transduced with single SaCas9 sgRNAs targeting MCL1, BCL2L1, or BCL2L2, or controls. […] Cells were dosed from 1 nM to 1 μM, and cell viability assessed (FIG. 5b, FIG. 15a).
Meljuso cells were transduced in 12-well plates, as described above, with lentivirus containing a single sgRNA targeting one of the anti-apoptotic genes (BCL2L1, BCL2L2, MCL1) or a control sgRNA either targeting CD81 or containing a run of 6 thymidines. Two days after transduction, cells were selected using puromycin at 1 μg/mL for five days. After puromycin selection, 3,000 cells were seeded into 96-well plates. Across each row of the 96-well plate, a different small molecule was added at 11 log 2-dilutions ranging from 1 μM to approximately 1 nM in duplicate for each of the cell lines. […] After 3 days in the presence of the small molecule, viability of the cell population was assayed by CellTiterGlo (Promega) according to the manufacturer's instructions.

[2] = system: MV4-11 (AML MLL-AF4) cells; experiment: BRD4 inhibitor dose response +/- WDR77 KO; type: cell-based
Excerpt: FIG. 36—illustrates that WDR77 KO sensitizes MV4-11 (AML MLL-AF4) cells to AZD5153 treatment.

[3] = system: THP-1 (AML MLL-AF9) cells; experiment: BRD4 inhibitor dose response +/- WDR77 KO
Description: JQ1 dose response+/−WDR77 KO. Octuplicate wells. Repeated with two sgRNAs.
The experiments were performed in octuplicate wells and repeated with two sgRNAs. FIGS. 35 and 36 show AZD5153 dose response curves in THP-1 and MV4-11 cells that are +/−WDR77 knock-out.

Meljuso cells = experiment: Apoptosis Big Papi library screen with inhibitors of anti-apoptotic proteins; type: cell-based, human; conditions: 250 nM, on/off dosing
Description: (e) In Meljuso cells with single gene knockouts, comparison of resistance and sensitization phenotypes for two small molecules. The fold change values are calculated relative to the no drug arm for targeting sgRNAs paired with the 6T and HPRT intron controls. Genes of interest are colored and labeled. (f) Buffering interactions in Meljuso cells for combinations of multidomain apoptotic genes with BH3-only sensitizer genes in different growth conditions. Data from the three small molecules were combined for the final column. Heat map scale is the same as in panel c. (g) Buffering interactions in Meljuso cells for combinations of pro-apoptotic genes and caspase genes in standard growth conditions and the combined data from the three small molecules. Heat map scale is the same as in panel c.
Applicants next analyzed Meljuso cells screened with inhibitors, first examining single gene effects.
To examine combinatorial phenotypes, Applicants combined data across the three BCL2L1 inhibitors, to minimize effects due to molecule-specific mechanism of action.
Infections were conducted as described above for the SynLet library. […] All small molecules were screened at 250 nM with an on/off dosing schedule, in which cells were treated with small-molecule for 4 days and then grown in standard growth conditions for 3 days, and then this cycle was repeated for an additional week. All arms were collected at 21 days post-infection. For Meljuso cells, all three replicates were prepared and sequenced separately.

Nc1nc2nc[nH]c2c(=S)[nH]1 [6-thioguanine]
effect of knockout of NUDTS on response to the drug (293T cells): resistance

Cc1c(-c2ccc(N3CCc4cccc(C(=O)Nc5nc6ccccc6s5)c4C3)nc2C(=O)O)cnn1CC12CC3CC(CC(C3)C1)C2 [A-1331852]
synergy of small molecule with sgRNAs targeting MCL1 (cell viability) [1]: strongly synergized

COc1nnc2ccc(N3CCC(c4ccc(OCCN5CCN(C)C(=O)[C@H]5C)cc4)CC3)nn12 [AZD5153]
effect of WDR77 KO on response to treatment [2]: sensitizes | effect of WDR77 KO on response to treatment [3]: sensitizes

Cc1sc2c(c1C)C(c1ccc(Cl)cc1)=N[C@@H](CC(=O)OC(C)(C)C)c1nnc(C)n1-2 [JQ1]
effect of WDR77 KO on response to treatment [3]: sensitizes

Cc1c(-c2c(-c3ccc(F)o3)sc3ncnc(O[C@H](Cc4ccccc4OCc4ccnn4CC(F)(F)F)C(=O)O)c23)ccc(OCCN2CCN(C)CC2)c1Cl [S63845]
synergy of small molecule with sgRNAs targeting BCL2L1 (cell viability) ([1]; sgRNAs targeting BCL2L1, dosed from 1 nM to 1 μM): synergized specifically | synergy with BCL2L1 knockout (single gene effect in screen) (Meljuso cells; relative to no drug arm): synergized

CC1(C)CCC(c2ccc(Cl)cc2)=C(CN2CCN(c3ccc(C(=O)NS(=O)(=O)c4ccc(N[C@H](CCN5CCOCC5)CSc5ccccc5)c(S(=O)(=O)C(F)(F)F)c4)cc3)CC2)C1 [navitoclax]
synergy of small molecule with sgRNAs targeting MCL1 (cell viability) [1]: strongly synergized | effect of knockout of BAX and PMAIP1 (Noxa) on response to the small molecule (Meljuso cells): resistance | effect of knockout of BCL2A1 on response to the small molecule (Meljuso cells): sensitized | synergy with MCL1 knockout (single gene effect in screen) (Meljuso cells; relative to no drug arm): synergized
